Where two headings read alike, the source gives them in different places.
Test system: S. aureus Oxford, S. aureus WCUH29, S. aureus Carter 37, E. faecalis I, M. catarrhalis Ravasio, S. pneumoniae R6
Assay: MIC of test compounds against various organisms
Format: cell-based
Conditions: against one or more of S. aureus Oxford
Procedure: The MIC (μg/ml) of test compounds against various organisms was determined: S. aureus Oxford, S. aureus WCUH29, S. aureus Carter 37, E. faecalis I, M. catarrhalis Ravasio, S. pneumoniae R6.

| SMILES | MIC | MIC (read-out: MIC) [µg/mL] |
| --- | --- | --- |
| CCCCCCCN1CCN(CC(O)c2ccnc3ccc(OC)cc23)[C@@H](CCO)C1.O=C(O)C(=O)O.O=C(O)C(=O)O (stereo partly drawn) [Example 12, [3S]-1-Heptyl-3-[2-hydroxyetbyl]-4-[2-(R,S)hydroxy-2-(6-methoxyquinolin-4-yl)ethyl]piperazine dioxalate] | less than or equal to 1 μg/ml |  |
| COc1ccc2nccc([C@@H](O)CN3CCN(CCCOc4ccccc4)CC3)c2c1 [Example 33, 1-(3-phenoxypropyl)-4-[2-(R)-hydroxy-2-(6-methoxyquinolin-4-yl)ethyl]piperazine] |  | ≤ 16 |
| CCCCCCCN1CCN(C[C@H](O)c2ccnc3ccc(OC)cc23)[C@H](CC(=O)O)C1.O=C(O)C(F)(F)F.O=C(O)C(F)(F)F.O=C(O)C(F)(F)F [Example 11, [3R]-3-Carboxymethyl-1-heptyl-4-[2-(R)-hydroxy-2-(6-methoxyquinolin-4-yl)ethyl]piperazine tris(trifluoroacetate)] |  | ≤ 16 |
